Results taken from patent US8324380B2, “Amino-heteroaryl-containing prokineticin 1 receptor antagonists” (Janssen Pharmaceutica NV, priority 2007, dated 2012).
pIC50: −log10 of the molar value. Like-named read-outs stand apart in the source and are kept apart here.

Target: T1, GPR73 (prokineticin 1 receptor) (Homo sapiens, UniProt Q8TCW9)
T1 construct: expressed in transfected cells; host or cells: HEK 293
Assay: PK1 functional assay: Ca2+ mobilization on the FLIPR
Format: cell-based
Conditions: for inhibition at 10 µM: read-out: Ca^2+ Mobilization % Inh @10 µM; for pIC50: HEK 293 GPR73 cells, read-out: Ca^2+ Mobilization IC50
Procedure: At a time of 24 h prior to running the assay, in cell culture media (DMEM containing high Glucose and L-glutamine, 10% FBS, 1% Pen/Streptomycin, 1% Sodium Pyruvate, 20 mM HEPES, Zeocin 200 mg/L), 100 µL of 1.3*10^6/ml HEK 293 GPR73 (prokineticin 1 receptor) expressing cells were plated in a 96 well poly-d-lysine coated plate (Costar), and incubated at 37° C. and 5% CO2. On the day in which the assay was run, the media was removed and 200 µL of 5× Calcium Plus Dye (Molecular Devices) which was previously resuspended with 200 mL of assay buffer [HBSS w/Ca^2+ and Mg^2+ w/o phenol red, 20 mM HEPES, 0.1% BSA, 10 mL probenecid (710 mg probenecid in 5 mL of 1N NaOH, to which was then added 5 mL HBSS containing 20 mM HEPES)] was added to each well of the 96-well plate. The plate was incubated at 37° C. and 5% CO2 for 30 min in dark. The plate was removed and allowed to reach RT for 15 min in the dark. The assay was then run on the FLIPR. In Brief: base line read for 1 min, compound added (25 μL) and incubated for 4 min, 15 seconds, PK1 ligand preparation added (25 μL) for a final concentration of a previously determined EC50 and fluorescence was counted for 1 min, 45 seconds. Baseline is described as the amount of relative fluorescence read when buffer alone is added to cells. Baseline was subtracted from all wells. Percent of control was calculated as follows: (Baseline subtracted well value is divided by baseline subtracted max value)*100. Percent inhibition is 100 minus the percent of control value.
The IC50 is defined as the amount of a given compound required to inhibit 50% of the maximum signal that is generated by the concentration of PK1 preparation used in our assay. IC50 values were calculated using GraphPad Prism.

T1 sequence (Q8TCW9 whole entry, species assumed): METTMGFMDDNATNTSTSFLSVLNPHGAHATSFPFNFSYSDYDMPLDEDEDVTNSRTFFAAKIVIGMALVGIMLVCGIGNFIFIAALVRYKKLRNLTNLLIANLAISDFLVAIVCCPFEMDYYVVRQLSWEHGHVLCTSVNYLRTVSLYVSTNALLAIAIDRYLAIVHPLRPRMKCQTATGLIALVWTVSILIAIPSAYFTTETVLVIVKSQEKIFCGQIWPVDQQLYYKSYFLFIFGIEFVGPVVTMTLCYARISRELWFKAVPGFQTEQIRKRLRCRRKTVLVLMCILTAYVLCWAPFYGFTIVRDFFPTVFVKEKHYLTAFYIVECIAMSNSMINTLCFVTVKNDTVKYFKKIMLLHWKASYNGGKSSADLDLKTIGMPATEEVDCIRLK

Row | inhibition at 10 µM (10 µM) [%] | pIC50 | inhibition at 10 µM (10 µM, (further determination)) [%] | pIC50 (IC50 (further determination)) | Structure (SMILES)
1 | 100 | 6.91 | – | – | NC1=Nc2ccccc2CN1CCNc1nc(=O)n(Cc2ccc(F)cc2)c(=O)n1Cc1ccc(OC(F)(F)F)cc1 [Cpd 47]
2 | 87 | 6.77 | – | – | Nc1nc2ccc(F)cc2n1CCNc1nc(=O)n(Cc2ccc(F)cc2)c(=O)n1Cc1ccc(OC(F)F)cc1 [Cpd 25]
3 | 95 | 7.11 | – | – | COc1ccc(Cn2c(NCCn3c(N)nc4ccccc43)nc(=O)n(Cc3ccc(Cl)cc3)c2=O)cc1 [Cpd 14]
4 | 90 | 6.73 | – | – | Nc1nc2ccccc2n1CCNc1nc(=O)n(Cc2ccc(Cl)c(Cl)c2)c(=O)n1Cc1ccc2c(c1)CCO2 [Cpd 73]
5 | 93 | 7.44 | 100 | 7.82 | Nc1ncc(CCNc2nc(=O)n(Cc3ccc(F)cc3)c(=O)n2Cc2ccc(OC(F)F)cc2)[nH]1 [Cpd 53]
6 | 96 | 7.31 | – | – | COc1ccc(Cn2c(NCCc3cnc(N)[nH]3)nc(=O)n(Cc3ccc(Cl)c(Cl)c3)c2=O)cc1 [Cpd 59]
7 | 80 | 6.42 | – | – | Nc1nc2c(F)cccc2n1CCNc1nc(=O)n(Cc2ccc(F)cc2)c(=O)n1Cc1ccc(OC(F)(F)F)cc1 [Cpd 39]
8 | 101 | 6.95 | – | – | NC1=Nc2ccc(Cl)cc2CN1CCNc1nc(=O)n(Cc2ccc(F)cc2)c(=O)n1Cc1ccc(OC(F)F)cc1 [Cpd 43]

Continued, molecule first:

Row | Structure (SMILES) | inhibition at 10 µM (10 µM) [%] | pIC50 | inhibition at 10 µM (10 µM, (further determination)) [%] | pIC50 (IC50 (further determination))
9 | CCc1ccc(Cn2c(=O)nc(NCCn3c(N)nc4ccccc43)n(Cc3ccc4c(c3)CCO4)c2=O)cc1 [Cpd 75] | 83 | 6.29 | – | –
10 | COc1ccc(Cn2c(NCCn3ccnc3N)nc(=O)n(Cc3ccc(F)cc3)c2=O)cc1 [Cpd 2, 6-[2-(2-Amino-imidazol-1-yl)-ethylamino]-3-(4-fluoro-benzyl)-1-(4-methoxy-benzyl)-1H-[1,3,5]triazine-2,4-dione] | 97 | – | 97 | 8.30
11 | COc1ccc(Cn2c(NCCc3cnc(N)[nH]3)nc(=O)n(Cc3ccc4c(c3)CCO4)c2=O)cc1 [Cpd 62] | 97 | 6.62 | – | –
12 | Nc1nc2ccccc2n1CCNc1nc(=O)n(Cc2ccc3c(c2)CCO3)c(=O)n1Cc1ccc(OC(F)F)cc1 [Cpd 87] | 102 | 6.65 | – | –
13 | COc1cccc2c1nc(N)n2CCNc1nc(=O)n(Cc2ccc(F)cc2)c(=O)n1Cc1ccc(OC(F)F)cc1 [Cpd 55] | 91 | 6.63 | – | –
14 | NC1=Nc2ccc(F)cc2CN1CCNc1nc(=O)n(Cc2ccc(F)cc2)c(=O)n1Cc1ccc(OC(F)F)cc1 [Cpd 45] | 101 | 7.04 | – | –
15 | COc1ccc(Cn2c(NCCn3c(N)nc4cc(S(C)(=O)=O)ccc43)nc(=O)n(Cc3ccc(F)cc3)c2=O)cc1 [Cpd 9] | 67 | 5.64 | – | –
16 | COc1ccc(Cn2c(NCCn3c(N)nc4ccccc43)nc(=O)n(Cc3ccc(SC)cc3)c2=O)cc1 [Cpd 70] | 103 | 7.66 | – | –
17 | Nc1nc2cc(C(F)(F)F)ccc2n1CCNc1nc(=O)n(Cc2ccc(F)cc2)c(=O)n1Cc1ccc(OC(F)(F)F)cc1 [Cpd 35] | 59 | 5.30 | – | –
18 | NC1=Nc2cc(F)ccc2CN1CCNc1nc(=O)n(Cc2ccc(F)cc2)c(=O)n1Cc1ccc(OC(F)(F)F)cc1 [Cpd 52] | 104 | 6.44 | – | –
19 | COc1ccc(Cn2c(NCCn3c(N)nc4c(F)cccc43)nc(=O)n(Cc3ccc(F)cc3)c2=O)cc1 [Cpd 11] | 89 | 6.84 | – | –
20 | COc1ccc(Cn2c(NCCc3cnc(N)[nH]3)nc(=O)n(Cc3ccc4c(c3)nnn4C)c2=O)cc1 [Cpd 67] | 93 | 6.77 | – | –
21 | Nc1ncc(CCNc2nc(=O)n(Cc3ccc4c(c3)CCO4)c(=O)n2Cc2ccc3c(c2)CCO3)[nH]1 [Cpd 66] | 69 | 5.62 | – | –
22 | COc1ccc(Cn2c(NCCn3c(N)nc4cc(F)ccc43)nc(=O)n(Cc3ccc(F)cc3)c2=O)cc1 [Cpd 5] | 102 | 7.16 | – | –
